Laboratory results from article PMC6357863, “Dithiocarbamate-inspired side chain stapling chemistry for peptide drug design” (Chemical Science, 2018).
Read-outs that look alike come from different tables or passages of the source.

Tests used:
circular dichroism = conditions: phosphate buffer (PB); pH 7.2; 20 °C; 10-50 uM
[1] = Dithiocarbamate (DTC) stapling of unprotected peptides: Lys side-chain amine + CS2 (Et3N) gives Lys-NH-C(=S)S-, then intramolecular thia-Michael addition to dehydroalanine (Dha, made beforehand from Cys with 2,5-dibromohexanediamide and HPLC-purified); conditions: the molecule shown is the open-chain precursor, 21-membered ring, ethanol/Et3N/CS2 10:1:1 v/v
[2] = the molecule shown is the open-chain precursor; 21-membered ring
cathepsin G = cathepsin G (Homo sapiens, UniProt P08311); conditions: 100 μM peptide, cell culture medium (RPMI 1640), 25 μg/ml cathepsin G, room temperature, RP-HPLC and ESI-MS
cathepsin G, sequence (P08311 21-255, species assumed): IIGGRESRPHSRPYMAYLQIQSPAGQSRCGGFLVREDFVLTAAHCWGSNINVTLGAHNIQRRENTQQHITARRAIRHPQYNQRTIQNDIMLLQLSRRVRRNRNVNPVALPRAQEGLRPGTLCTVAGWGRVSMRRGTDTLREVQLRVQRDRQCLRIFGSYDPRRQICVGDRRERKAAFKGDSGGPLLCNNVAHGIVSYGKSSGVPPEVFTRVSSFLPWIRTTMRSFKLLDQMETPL
Protocol: and three independent experiments were performed.
Fluorescence polarization (FP).
As an additional positive control, we
Tecan Infinite M1000 plate reader. […]
additional incubation for 64 hours.
Circular Dichroism (CD) Spectroscopy. […]
(§1) from 10-50 μM. […] The spectra were […]
of each peptide was calculated as reported previously. 12
Stability in GSH. […] RP-

[3] = Circular dichroism spectroscopy, helical content; format: physicochemical; conditions: CD, PB pH 7.2, 10-50 μM peptide, 20 °C
Protocol: Circular Dichroism (CD) Spectroscopy.
as §1

Compound	helicity (circular dichroism)	ring closure, isolated yield [1]	other results
CC(=O)N[C@H](C(=O)N[C@@H](CO)C(=O)N[C@@H](Cc1ccccc1)C(=O)N[C@@H](C)C(=O)N[C@@H](CCC(=O)O)C(=O)N[C@@H](Cc1ccc(O)cc1)C(=O)N[C@@H](Cc1c[nH]c2ccccc12)C(=O)N[C@H]1CCCCNC(=S)SC[C@@H](C(N)=O)NC(=O)[C@H](CO)NC(=O)[C@H](CC(C)C)NC(=O)[C@H](CC(C)C)NC1=O)[C@@H](C)O	43.3%	–	–
CC(=O)N[C@H](C(=O)N[C@@H](CO)C(=O)N[C@@H](Cc1ccccc1)C(=O)N[C@H]1CCCCNC(=S)SC[C@@H](C(=O)N[C@@H](CC(C)C)C(=O)N[C@@H](CC(C)C)C(=O)N[C@@H](CO)C(=O)N2CCC[C@H]2C(N)=O)NC(=O)[C@H](Cc2c[nH]c3ccccc23)NC(=O)[C@H](Cc2ccc(O)cc2)NC(=O)[C@H](CCC(=O)O)NC1=O)[C@@H](C)O	39.3%	–	–
CC(=O)N[C@H](C(=O)N[C@@H](CO)C(=O)N[C@@H](Cc1ccccc1)C(=O)N[C@@H](C)C(=O)N[C@H]1CCCCNC(=S)SC[C@@H](C(=O)N[C@@H](CC(C)C)C(=O)N[C@@H](CO)C(=O)N2CCC[C@H]2C(N)=O)NC(=O)[C@H](CC(N)=O)NC(=O)[C@H](Cc2c[nH]c3ccccc23)NC(=O)[C@H](Cc2ccc(O)cc2)NC1=O)[C@@H](C)O	6.88%	–	–
CC(=O)N[C@H](C(=O)N[C@@H](CO)C(=O)N[C@@H](Cc1ccccc1)C(=O)N[C@@H](C)C(=O)N[C@H]1CSC(=S)NCCCC[C@@H](C(=O)N[C@@H](CC(C)C)C(=O)N[C@@H](CO)C(=O)N2CCC[C@H]2C(N)=O)NC(=O)[C@H](CC(N)=O)NC(=O)[C@H](Cc2c[nH]c3ccccc23)NC(=O)[C@H](Cc2ccc(O)cc2)NC1=O)[C@@H](C)O	9.58%	–	–
C=C(NC(=O)[C@H](Cc1ccccc1)NC(=O)[C@H](CO)NC(=O)[C@@H](NC(C)=O)[C@@H](C)O)C(=O)N[C@@H](CCC(=O)O)C(=O)N[C@@H](Cc1ccc(O)cc1)C(=O)N[C@@H](Cc1c[nH]c2ccccc12)C(=O)N[C@@H](CCCCNC(=S)S)C(=O)N[C@@H](CC(C)C)C(=O)N[C@@H](CC(C)C)C(=O)N[C@@H](CO)C(=O)N1CCC[C@H]1C(N)=O [Ac-Thr-Ser-Phe-Dha-Glu-Tyr-Trp-Lys-Leu-Leu-Ser-Pro-NH2]	–	33%	–
C=C(NC(=O)[C@H](Cc1c[nH]c2ccccc12)NC(=O)[C@H](Cc1ccc(O)cc1)NC(=O)[C@H](CCC(=O)O)NC(=O)[C@H](C)NC(=O)[C@H](Cc1ccccc1)NC(=O)[C@H](CO)NC(=O)[C@@H](NC(C)=O)[C@@H](C)O)C(=O)N[C@@H](CC(C)C)C(=O)N[C@@H](CC(C)C)C(=O)N[C@@H](CO)C(=O)N[C@@H](CCCCNC(=S)S)C(N)=O [Ac-Thr-Ser-Phe-Ala-Glu-Tyr-Trp-Dha-Leu-Leu-Ser-Lys-NH2]	–	–	ring closure, isolated yield [2]: 38%
CC(=O)N[C@H](C(=O)N[C@H]1CSC(=S)NCCCC[C@@H](C(=O)N[C@@H](Cc2c[nH]c3ccccc23)C(=O)N[C@@H](CC(N)=O)C(=O)N[C@@H](CC(C)C)C(=O)N[C@@H](CC(C)C)C(=O)N[C@@H](CO)C(=O)N2CCC[C@H]2C(N)=O)NC(=O)[C@H](CCC(=O)O)NC(=O)[C@H](C)NC(=O)[C@H](Cc2ccccc2)NC1=O)[C@@H](C)O	4.81%	–	–
CC(=O)N[C@H](C(=O)N[C@@H](CO)C(=O)N[C@@H](Cc1ccccc1)C(=O)N[C@@H](C)C(=O)N[C@@H](CCC(=O)O)C(=O)N[C@@H](Cc1ccc(O)cc1)C(=O)N[C@@H](Cc1c[nH]c2ccccc12)C(=O)N[C@H]1CSC(=S)NCCCC[C@@H](C(N)=O)NC(=O)[C@H](CO)NC(=O)[C@H](CC(C)C)NC(=O)[C@H](CC(C)C)NC1=O)[C@@H](C)O	0.23%	–	–
CC(=O)N[C@H](C(=O)N[C@H]1CCCCNC(=S)SC[C@@H](C(=O)N[C@@H](Cc2c[nH]c3ccccc23)C(=O)N[C@@H](CC(N)=O)C(=O)N[C@@H](CC(C)C)C(=O)N[C@@H](CC(C)C)C(=O)N[C@@H](CO)C(=O)N2CCC[C@H]2C(N)=O)NC(=O)[C@H](CCC(=O)O)NC(=O)[C@H](C)NC(=O)[C@H](Cc2ccccc2)NC1=O)[C@@H](C)O	15.3%	–	–
C=C(NC(=O)[C@H](CC(N)=O)NC(=O)[C@H](Cc1c[nH]c2ccccc12)NC(=O)[C@H](Cc1ccc(O)cc1)NC(=O)[C@H](CCCCNC(=S)S)NC(=O)[C@H](C)NC(=O)[C@H](Cc1ccccc1)NC(=O)[C@H](CO)NC(=O)[C@@H](NC(C)=O)[C@@H](C)O)C(=O)N[C@@H](CC(C)C)C(=O)N[C@@H](CO)C(=O)N1CCC[C@H]1C(N)=O [Ac-Thr-Ser-Phe-Ala-Lys-Tyr-Trp-Asn-Dha-Leu-Ser-Pro-NH2]	–	24%	–
C=C(NC(=O)[C@H](Cc1c[nH]c2ccccc12)NC(=O)[C@H](Cc1ccc(O)cc1)NC(=O)[C@H](CCC(N)=O)NC(=O)[C@H](CCCCNC(=S)S)NC(=O)[C@H](Cc1ccccc1)NC(=O)[C@H](CO)NC(=O)[C@@H](NC(C)=O)[C@@H](C)O)C(=O)N[C@@H](CC(C)C)C(=O)N[C@@H](CC(C)C)C(=O)N[C@@H](CO)C(=O)N[C@@H](CCCNC(=N)N)C(N)=O [Ac-Thr-Ser-Phe-Lys-Gln-Tyr-Trp-Dha-Leu-Leu-Ser-Arg-NH2]	–	46%	–
C=C(NC(=O)[C@H](CO)NC(=O)[C@H](CC(C)C)NC(=O)[C@H](CC(C)C)NC(=O)[C@H](CCCCNC(=S)S)NC(=O)[C@H](Cc1c[nH]c2ccccc12)NC(=O)[C@H](Cc1ccc(O)cc1)NC(=O)[C@H](CCC(=O)O)NC(=O)[C@H](C)NC(=O)[C@H](Cc1ccccc1)NC(=O)[C@H](CO)NC(=O)[C@@H](NC(C)=O)[C@@H](C)O)C(N)=O [Ac-Thr-Ser-Phe-Ala-Glu-Tyr-Trp-Lys-Leu-Leu-Ser-Dha-NH2]	–	–	ring closure, isolated yield [2]: 45%
CC(=O)N[C@H](C(=O)N[C@@H](CO)C(=O)N[C@@H](Cc1ccccc1)C(=O)N[C@H]1CSC(=S)NCCCC[C@@H](C(=O)N[C@@H](CC(C)C)C(=O)N[C@@H](CC(C)C)C(=O)N[C@@H](CO)C(=O)N2CCC[C@H]2C(N)=O)NC(=O)[C@H](Cc2c[nH]c3ccccc23)NC(=O)[C@H](Cc2ccc(O)cc2)NC(=O)[C@H](CCC(=O)O)NC1=O)[C@@H](C)O	9.15%	–	–
C=C(NC(=O)[C@@H](NC(C)=O)[C@@H](C)O)C(=O)N[C@@H](Cc1ccccc1)C(=O)N[C@@H](C)C(=O)N[C@@H](CCC(=O)O)C(=O)N[C@@H](CCCCNC(=S)S)C(=O)N[C@@H](Cc1c[nH]c2ccccc12)C(=O)N[C@@H](CC(N)=O)C(=O)N[C@@H](CC(C)C)C(=O)N[C@@H](CC(C)C)C(=O)N[C@@H](CO)C(=O)N1CCC[C@H]1C(N)=O [Ac-Thr-Dha-Phe-Ala-Glu-Lys-Trp-Asn-Leu-Leu-Ser-Pro-NH2]	–	39%	–
C=C(NC(=O)[C@H](CCC(=O)O)NC(=O)[C@H](C)NC(=O)[C@H](Cc1ccccc1)NC(=O)[C@H](CCCCNC(=S)S)NC(=O)[C@@H](NC(C)=O)[C@@H](C)O)C(=O)N[C@@H](Cc1c[nH]c2ccccc12)C(=O)N[C@@H](CC(N)=O)C(=O)N[C@@H](CC(C)C)C(=O)N[C@@H](CC(C)C)C(=O)N[C@@H](CO)C(=O)N1CCC[C@H]1C(N)=O [Ac-Thr-Lys-Phe-Ala-Glu-Dha-Trp-Asn-Leu-Leu-Ser-Pro-NH2]	–	34%	–
C=C(NC(=O)[C@H](Cc1c[nH]c2ccccc12)NC(=O)[C@H](Cc1ccc(O)cc1)NC(=O)[C@H](CCC(=O)O)NC(=O)[C@H](CCCCNC(=S)S)NC(=O)[C@H](Cc1ccccc1)NC(=O)[C@H](CO)NC(=O)[C@@H](NC(C)=O)[C@@H](C)O)C(=O)N[C@@H](CC(C)C)C(=O)N[C@@H](CC(C)C)C(=O)N[C@@H](CO)C(=O)N1CCC[C@H]1C(N)=O [Ac-Thr-Ser-Phe-Lys-Glu-Tyr-Trp-Dha-Leu-Leu-Ser-Pro-NH2]	–	42%	–
Ac-TSFAEYWNLLSP-NH2 [PMI-0]	–	–	time to full degradation by cathepsin G (cathepsin G): ≤ 30 min; α-Helix (%) [3]: 9.77%
CC(=O)N[C@H]1CSC(=S)NCCCC[C@@H](C(=O)N[C@@H](Cc2ccc(O)cc2)C(=O)N[C@@H](Cc2c[nH]c3ccccc23)C(=O)N[C@@H](CC(N)=O)C(=O)N[C@@H](CC(C)C)C(=O)N[C@@H](CC(C)C)C(=O)N[C@@H](CO)C(=O)N2CCC[C@H]2C(N)=O)NC(=O)[C@H](C)NC(=O)[C@H](Cc2ccccc2)NC(=O)[C@H](CO)NC1=O	8.38%	–	–
C=C(NC(C)=O)C(=O)N[C@@H](CO)C(=O)N[C@@H](Cc1ccccc1)C(=O)N[C@@H](C)C(=O)N[C@@H](CCCCNC(=S)S)C(=O)N[C@@H](Cc1ccc(O)cc1)C(=O)N[C@@H](Cc1c[nH]c2ccccc12)C(=O)N[C@@H](CC(N)=O)C(=O)N[C@@H](CC(C)C)C(=O)N[C@@H](CC(C)C)C(=O)N[C@@H](CO)C(=O)N1CCC[C@H]1C(N)=O [Ac-Dha-Ser-Phe-Ala-Lys-Tyr-Trp-Asn-Leu-Leu-Ser-Pro-NH2]	–	37%	–
C=C(NC(=O)[C@H](C)NC(=O)[C@H](Cc1ccccc1)NC(=O)[C@H](CO)NC(=O)[C@@H](NC(C)=O)[C@@H](C)O)C(=O)N[C@@H](Cc1ccc(O)cc1)C(=O)N[C@@H](Cc1c[nH]c2ccccc12)C(=O)N[C@@H](CC(N)=O)C(=O)N[C@@H](CCCCNC(=S)S)C(=O)N[C@@H](CC(C)C)C(=O)N[C@@H](CO)C(=O)N1CCC[C@H]1C(N)=O [Ac-Thr-Ser-Phe-Ala-Dha-Tyr-Trp-Asn-Lys-Leu-Ser-Pro-NH2]	–	27%	–
C=C(NC(=O)[C@H](C)NC(=O)[C@H](Cc1ccccc1)NC(=O)[C@H](CO)NC(=O)[C@H](CCCCNC(=S)S)NC(C)=O)C(=O)N[C@@H](Cc1ccc(O)cc1)C(=O)N[C@@H](Cc1c[nH]c2ccccc12)C(=O)N[C@@H](CC(N)=O)C(=O)N[C@@H](CC(C)C)C(=O)N[C@@H](CC(C)C)C(=O)N[C@@H](CO)C(=O)N1CCC[C@H]1C(N)=O [Ac-Lys-Ser-Phe-Ala-Dha-Tyr-Trp-Asn-Leu-Leu-Ser-Pro-NH2]	–	28%	–
